Key:
Assay in all cases: Post-emergence efficacy, glasshouse
Assay type in all cases: in vivo
Lolium perenne (LOLPE) = conditions: Lolium perenne, post-emergence, 312 h, evaluated after 13 days, 100=total damage to plant, 0=no damage to plant, read-out: Control of weed species after post-emergence application, LOLPE; for pest or weed control at 1000 g/ha: Application Rate 1000 g/Ha
Method in brief: (§1)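 Seedlings at 14 days post-sowing receive a spray of aqueous compound dilution. After 13 further days in the glasshouse, watered twice daily, each plant gets a visual score where 0 means undamaged and 100 means total damage.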

[1] = system: Euphorbia heterophylla (EPHHL); conditions: Euphorbia heterophylla, post-emergence, 312 h, evaluated after 13 days, 100=total damage to plant, 0=no damage to plant, read-out: Control of weed species after post-emergence application, EPHHL; for pest or weed control at 1000 g/ha: Application Rate 1000 g/Ha
Method in brief: as §1

[2] = system: Echinochloa crus-galli (ECHCG); conditions: Echinochloa crus-galli, post-emergence, 312 h, evaluated after 13 days, 100=total damage to plant, 0=no damage to plant, read-out: Control of weed species after post-emergence application, ECHCG; for pest or weed control at 1000 g/ha: Application Rate 1000 g/Ha
Method in brief: as §1

Setaria faberi (SETFA) = conditions: Setaria faberi, post-emergence, 312 h, evaluated after 13 days, 100=total damage to plant, 0=no damage to plant, read-out: Control of weed species after post-emergence application, SETFA; for pest or weed control at 1000 g/ha: Application Rate 1000 g/Ha
Method in brief: as §1

[3] = system: Ipomoea hederacea (IPOHE); conditions: Ipomoea hederacea, post-emergence, 312 h, evaluated after 13 days, 100=total damage to plant, 0=no damage to plant, read-out: Control of weed species after post-emergence application, IPOHE; for pest or weed control at 1000 g/ha: Application Rate 1000 g/Ha
Method in brief: as §1

[4] = system: Digitaria sanguinalis (DIGSA); conditions: Digitaria sanguinalis, post-emergence, 312 h, evaluated after 13 days, 100=total damage to plant, 0=no damage to plant, read-out: Control of weed species after post-emergence application, DIGSA; for pest or weed control at 1000 g/ha: Application Rate 1000 g/Ha
Method in brief: as §1

[5] = system: Amaranthus palmeri (AMAPA); conditions: Amaranthus palmeri, post-emergence, 312 h, evaluated after 13 days, 100=total damage to plant, 0=no damage to plant, read-out: Control of weed species after post-emergence application, AMAPA; for pest or weed control at 1000 g/ha: Application Rate 1000 g/Ha
Method in brief: as §1

Eleusine indica (ELEIN) = conditions: Eleusine indica, post-emergence, 312 h, evaluated after 13 days, 100=total damage to plant, 0=no damage to plant, read-out: Control of weed species after post-emergence application, ELEIN; for pest or weed control at 1000 g/ha: Application Rate 1000 g/Ha
Method in brief: as §1

[6] = system: Chenopodium album (CHEAL); conditions: Chenopodium album, post-emergence, 312 h, evaluated after 13 days, 100=total damage to plant, 0=no damage to plant, read-out: Control of weed species after post-emergence application, CHEAL; for pest or weed control at 1000 g/ha: Application Rate 1000 g/Ha
Method in brief: as §1

`C[n+]1cc(C(=O)[N-]c2nnn[nH]2)c2ccccc2n1` [Compound A17] was tested, and the pest or weed control at 1000 g/ha (Lolium perenne (LOLPE)) was 10%, the pest or weed control at 1000 g/ha [1] was 20% and the pest or weed control at 1000 g/ha [2] was 0%. It also gave a pest or weed control at 1000 g/ha (Setaria faberi (SETFA)) of 10%, a pest or weed control at 1000 g/ha [3] of 40% and a pest or weed control at 1000 g/ha [4] of 10%. For the same compound, the pest or weed control at 1000 g/ha [5] was 50%, the pest or weed control at 1000 g/ha (Eleusine indica (ELEIN)) was 20% and the pest or weed control at 1000 g/ha [6] was 30%.

In the case of `C[n+]1cc(CCC(=O)O)c2ccccc2n1` [Compound A56, 3-(2-methylcinnolin-2-ium-4-yl)propanoic acid 2,2,2-trifluoroacetate], the pest or weed control at 500 g/ha (Lolium perenne (LOLPE); Application Rate 500 g/Ha) is reported as 10%, the pest or weed control at 500 g/ha ([1]; Application Rate 500 g/Ha) is reported as 40% and the pest or weed control at 500 g/ha ([2]; Application Rate 500 g/Ha) is reported as 70%. For the same compound, the pest or weed control at 500 g/ha (Setaria faberi (SETFA); Application Rate 500 g/Ha) was 60%, the pest or weed control at 500 g/ha ([3]; Application Rate 500 g/Ha) was 30% and the pest or weed control at 500 g/ha ([4]; Application Rate 500 g/Ha) was 100%. For the same compound, the pest or weed control at 500 g/ha ([5]; Application Rate 500 g/Ha) was 100%, the pest or weed control at 500 g/ha (Eleusine indica (ELEIN); Application Rate 500 g/Ha) was 70% and the pest or weed control at 500 g/ha ([6]; Application Rate 500 g/Ha) was 90%.

Compound `C[n+]1cc(C(=O)[N-]S(=O)(=O)c2ccccc2)c2ccccc2n1` [Compound A35] has a pest or weed control at 1000 g/ha (Lolium perenne (LOLPE)) of 0%, a pest or weed control at 1000 g/ha [1] of 40% and a pest or weed control at 1000 g/ha [2] of 0%. For the same compound, the pest or weed control at 1000 g/ha (Setaria faberi (SETFA)) was 10%, the pest or weed control at 1000 g/ha [3] was 20% and the pest or weed control at 1000 g/ha [4] was 10%. It also gave a pest or weed control at 1000 g/ha [5] of 20%, a pest or weed control at 1000 g/ha (Eleusine indica (ELEIN)) of 0% and a pest or weed control at 1000 g/ha [6] of 0%.

Compound `C[n+]1cc(C(=O)O)c2ccccc2n1` [Compound A29] has a pest or weed control at 1000 g/ha (Lolium perenne (LOLPE)) of 40%, a pest or weed control at 1000 g/ha [1] of 80% and a pest or weed control at 1000 g/ha [2] of 40%. It also gave a pest or weed control at 1000 g/ha (Setaria faberi (SETFA)) of 50%, a pest or weed control at 1000 g/ha [3] of 80% and a pest or weed control at 1000 g/ha [4] of 30%. For the same compound, the pest or weed control at 1000 g/ha [5] was 90%, the pest or weed control at 1000 g/ha (Eleusine indica (ELEIN)) was 20% and the pest or weed control at 1000 g/ha [6] was 90%.

`Cn1nnnc1[N-]C(=O)c1c[n+](C)nc2ccccc12` [Compound A16] was tested, and the pest or weed control at 1000 g/ha (Lolium perenne (LOLPE)) was 10%, the pest or weed control at 1000 g/ha [1] was 30% and the pest or weed control at 1000 g/ha [2] was 20%. It also gave a pest or weed control at 1000 g/ha (Setaria faberi (SETFA)) of 10%, a pest or weed control at 1000 g/ha [3] of 40% and a pest or weed control at 1000 g/ha [4] of 0%. For the same compound, the pest or weed control at 1000 g/ha [5] was 50%, the pest or weed control at 1000 g/ha (Eleusine indica (ELEIN)) was 0% and the pest or weed control at 1000 g/ha [6] was 60%.

Compound `CC[n+]1cc(P(=O)([O-])O)c2ccccc2n1` [Compound A66] has a pest or weed control at 1000 g/ha (Lolium perenne (LOLPE)) of 10%, a pest or weed control at 1000 g/ha [1] of 80% and a pest or weed control at 1000 g/ha [2] of 60%. For the same compound, the pest or weed control at 1000 g/ha (Setaria faberi (SETFA)) was 70%, the pest or weed control at 1000 g/ha [3] was 60% and the pest or weed control at 1000 g/ha [4] was 90%. For the same compound, the pest or weed control at 1000 g/ha [5] was 40%, the pest or weed control at 1000 g/ha (Eleusine indica (ELEIN)) was 70% and the pest or weed control at 1000 g/ha [6] was 30%.

`CC[n+]1cc(C(=O)[N-]S(C)(=O)=O)c2ccccc2n1` [Compound A22, (2-ethylcinnolin-2-ium-4-carbonyl)-methylsulfonyl-azanide] gave a pest or weed control at 1000 g/ha (Lolium perenne (LOLPE)) of 60%, a pest or weed control at 1000 g/ha [1] of 60% and a pest or weed control at 1000 g/ha [2] of 50%. For the same compound, the pest or weed control at 1000 g/ha (Setaria faberi (SETFA)) was 70%, the pest or weed control at 1000 g/ha [3] was 90% and the pest or weed control at 1000 g/ha [4] was 80%. The pest or weed control at 1000 g/ha [5] was 70%, the pest or weed control at 1000 g/ha (Eleusine indica (ELEIN)) was 70% and the pest or weed control at 1000 g/ha [6] was 70%.

Work on `COC(=O)C[n+]1cc(C(=O)[N-]S(C)(=O)=O)c2ccccc2n1` [Compound A15, [2-(2-methoxy-2-oxo-ethyl)cinnolin-2-ium-4-carbonyl]-methylsulfonyl-azanide] yielded a pest or weed control at 1000 g/ha (Lolium perenne (LOLPE)) of 10%, a pest or weed control at 1000 g/ha [1] of 30% and a pest or weed control at 1000 g/ha [2] of 20%. For the same compound, the pest or weed control at 1000 g/ha (Setaria faberi (SETFA)) was 10%, the pest or weed control at 1000 g/ha [3] was 10% and the pest or weed control at 1000 g/ha [4] was 0%. It also gave a pest or weed control at 1000 g/ha [5] of 50%, a pest or weed control at 1000 g/ha (Eleusine indica (ELEIN)) of 0% and a pest or weed control at 1000 g/ha [6] of 30%.

— US20220132847A1, “CINNOLINIUM COMPOUNDS FOR USE IN A METHOD OF CONTROLLING UNWANTED PLANT GROWTH” (SYNGENTA CROP PROTECTION AG, priority 2019, published 2022)
